Test results from ChEMBL document CHEMBL1201862, “PubChem BioAssay data set” (2004).
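Tested at 5 concentrations; 48 h exposure; 96-well plates; endpoints linearly interpolated, else capped at highest concentration. GI50 = concentration required for 50% inhibition of growth.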 Activity calls are given as the source filed them. Cut-off read from the data, not from the text of the source: active = GI50 up to about 1.1 µM and inactive = higher.

How the values were obtained:
Assay in all cases: DTP human tumour cell line panel, 48 h
K562 = test system: K562
MOLT-4 = test system: MOLT-4
RXF 393 = test system: RXF 393
LOX IMVI = test system: LOX IMVI
HCT-15 = test system: HCT-15
OVCAR-5 = test system: OVCAR-5
HL-60 = test system: HL-60
A498 = test system: A498
CCRF-CEM = test system: CCRF-CEM
Malme-3M = test system: Malme-3M
MCF7 = test system: MCF7
TK-10 = test system: TK-10
OVCAR-8 = test system: OVCAR-8
HCT-116 = test system: HCT-116
SN12C = test system: SN12C
SK-MEL-28 = test system: SK-MEL-28
NCI-H226 = test system: NCI-H226
SF-268 = test system: SF-268
OVCAR-4 = test system: OVCAR-4
M14 = test system: M14
SK-OV-3 = test system: SK-OV-3
UACC-62 = test system: UACC-62
NCI-H522 = test system: NCI-H522
COLO 205 = test system: COLO 205
SK-MEL-5 = test system: SK-MEL-5
786-0 = test system: 786-0
RPMI-8226 = test system: RPMI-8226
ACHN = test system: ACHN
U-251 = test system: U-251
HOP-62 = test system: HOP-62
EKVX = test system: EKVX
NCI/ADR-RES = test system: NCI/ADR-RES
SK-MEL-2 = test system: SK-MEL-2
CAKI-1 = test system: CAKI-1
HOP-92 = test system: HOP-92
UO-31 = test system: UO-31
NCI-H460 = test system: NCI-H460
Hs-578T = test system: Hs-578T
HT-29 = test system: HT-29
NCI-H23 = test system: NCI-H23
MDA-MB-231 = test system: MDA-MB-231
MDA-N = test system: MDA-N
SR = test system: SR
UACC-257 = test system: UACC-257
SF-539 = test system: SF-539
BT-549 = test system: BT-549
MDA-MB-435 = test system: MDA-MB-435
OVCAR-3 = test system: OVCAR-3
HCC 2998 = test system: HCC 2998
DU-145 = test system: DU-145
SW-620 = test system: SW-620
A549 = test system: A549
PC-3 = test system: PC-3
T47D = test system: T47D
SF-295 = test system: SF-295
KM12 = test system: KM12
SNB-19 = test system: SNB-19
IGROV-1 = test system: IGROV-1
SNB-75 = test system: SNB-75

C[C@H](CCC(=O)NN)[C@H]1CC[C@H]2[C@@H]3CC[C@@H]4C[C@H](O)CC[C@]4(C)[C@H]3CC[C@]12C
GI50 (K562): 14.7 µM (inactive) | GI50 (MOLT-4): 10.4 µM (inactive) | GI50 (RXF 393): 21.4 µM (inactive) | GI50 (LOX IMVI): 31.6 µM (inactive) | GI50 (HCT-15): 39.7 µM | GI50 (OVCAR-5): > 88.3 µM (inactive) | GI50 (HL-60): 8.53 µM (inactive) | GI50 (A498): 79.3 µM (inactive) | GI50 (CCRF-CEM): 12.3 µM (inactive) | GI50 (Malme-3M): 52.1 µM (inactive) | GI50 (MCF7): 31.7 µM (inactive) | GI50 (TK-10): 38.3 µM (inactive) | GI50 (OVCAR-8): 37.2 µM (inactive) | GI50 (HCT-116): 41 µM (inactive) | GI50 (SN12C): 55.7 µM (inactive) | GI50 (SK-MEL-28): > 74.8 µM (inactive) | GI50 (NCI-H226): > 74.6 µM (inactive) | GI50 (SF-268): 65.3 µM (inactive) | GI50 (OVCAR-4): > 67.1 µM (inactive) | GI50 (M14): 25.4 µM (inactive) | GI50 (SK-OV-3): > 100 µM (inactive) | GI50 (UACC-62): > 100 µM (inactive) | GI50 (NCI-H522): 29.2 µM (inactive) | GI50 (COLO 205): 31.6 µM (inactive) | GI50 (SK-MEL-5): 23.4 µM (inactive) | GI50 (786-0): 36.4 µM (inactive) | GI50 (RPMI-8226): 20.7 µM (inactive) | GI50 (ACHN): 54.8 µM (inactive) | GI50 (U-251): > 73.5 µM (inactive) | GI50 (HOP-62): > 100 µM (inactive) | GI50 (EKVX): 43 µM (inactive) | GI50 (NCI/ADR-RES): 64.1 µM (inactive) | GI50 (SK-MEL-2): > 88.5 µM (inactive) | GI50 (CAKI-1): 46.3 µM (inactive) | GI50 (HOP-92): > 86.5 µM (inactive) | GI50 (UO-31): 51.9 µM (inactive) | GI50 (NCI-H460): 52.1 µM (inactive) | GI50 (Hs-578T): > 100 µM (inactive) | GI50 (HT-29): 27.7 µM (inactive) | GI50 (NCI-H23): 41.2 µM (inactive) | GI50 (MDA-MB-231): 40.8 µM (inactive) | GI50 (MDA-N): 75.7 µM (inactive) | GI50 (SR): 18.6 µM (inactive) | GI50 (UACC-257): 61.7 µM (inactive) | GI50 (SF-539): 84.1 µM (inactive) | GI50 (BT-549): 57.8 µM (inactive) | GI50 (MDA-MB-435): 44.2 µM (inactive) | GI50 (OVCAR-3): 32 µM (inactive) | GI50 (HCC 2998): 41.4 µM (inactive) | GI50 (DU-145): > 50.8 µM (inactive) | GI50 (SW-620): 71.8 µM (inactive) | GI50 (A549): 54.1 µM (inactive) | GI50 (PC-3): 44.8 µM (inactive) | GI50 (T47D): 24.8 µM (inactive) | GI50 (SF-295): > 68.2 µM (inactive) | GI50 (KM12): 39.2 µM (inactive) | GI50 (SNB-19): 97.3 µM (inactive) | GI50 (IGROV-1): 83.4 µM (inactive)

[O-][Cl+3]([O-])([O-])[O-].[O-][Cl+3]([O-])([O-])[O-].c1ccn2c(N3CCOCC3)[n+]3c4ccccc4[n+]4c(N5CCOCC5)n5ccccc5c4c3c2c1
GI50 (K562): > 100 µM (inactive) | GI50 (MOLT-4): > 100 µM (inactive) | GI50 (RXF 393): > 100 µM (inactive) | GI50 (LOX IMVI): > 100 µM (inactive) | GI50 (HCT-15): > 100 µM | GI50 (OVCAR-5): > 100 µM (inactive) | GI50 (HL-60): 71.6 µM (inactive) | GI50 (A498): > 100 µM (inactive) | GI50 (CCRF-CEM): > 100 µM (inactive) | GI50 (Malme-3M): 66.2 µM (inactive) | GI50 (MCF7): 56.1 µM (inactive) | GI50 (TK-10): > 100 µM (inactive) | GI50 (OVCAR-8): 41.2 µM (inactive) | GI50 (HCT-116): > 100 µM (inactive) | GI50 (SN12C): 17.7 µM (inactive) | GI50 (SK-MEL-28): > 100 µM (inactive) | GI50 (NCI-H226): 79.4 µM (inactive) | GI50 (SF-268): 19 µM (inactive) | GI50 (OVCAR-4): > 100 µM (inactive) | GI50 (M14): > 100 µM (inactive) | GI50 (UACC-62): > 100 µM (inactive) | GI50 (NCI-H522): > 100 µM (inactive) | GI50 (COLO 205): 49.9 µM (inactive) | GI50 (SK-MEL-5): 34 µM (inactive) | GI50 (786-0): > 100 µM (inactive) | GI50 (RPMI-8226): > 100 µM (inactive) | GI50 (ACHN): > 100 µM (inactive) | GI50 (U-251): 50.6 µM (inactive) | GI50 (EKVX): > 100 µM (inactive) | GI50 (SNB-75): 28.5 µM (inactive) | GI50 (NCI/ADR-RES): > 100 µM (inactive) | GI50 (SK-MEL-2): > 100 µM (inactive) | GI50 (CAKI-1): > 100 µM (inactive) | GI50 (HOP-92): > 100 µM (inactive) | GI50 (NCI-H460): > 100 µM (inactive) | GI50 (Hs-578T): 33.7 µM (inactive) | GI50 (NCI-H23): > 100 µM (inactive) | GI50 (MDA-MB-231): > 100 µM (inactive) | GI50 (MDA-N): 63.5 µM (inactive) | GI50 (SR): 41.3 µM (inactive) | GI50 (UACC-257): 68.9 µM (inactive) | GI50 (SF-539): 65.3 µM (inactive) | GI50 (BT-549): > 100 µM (inactive) | GI50 (MDA-MB-435): > 100 µM (inactive) | GI50 (OVCAR-3): > 100 µM (inactive) | GI50 (HCC 2998): > 100 µM (inactive) | GI50 (DU-145): > 100 µM (inactive) | GI50 (SW-620): > 100 µM (inactive) | GI50 (A549): > 100 µM (inactive) | GI50 (PC-3): > 100 µM (inactive) | GI50 (T47D): > 100 µM (inactive) | GI50 (SF-295): > 100 µM (inactive) | GI50 (KM12): 52.1 µM (inactive) | GI50 (SNB-19): 63.2 µM (inactive) | GI50 (IGROV-1): 66.2 µM (inactive)
